Experimental data: PMC8856561, “Pharmacological and genetic activation of cAMP synthesis disrupts cholesterol utilization in Mycobacterium tuberculosis” (PLoS Pathogens, 2022)

Legend:
Mtb = experiment: microbe, parasite or virus in culture; format: cell-based, Mycobacterium tuberculosis; conditions: for inhibition of ΔRv1625c mutant: ΔRv1625c strain, cholesterol media
Rv1625c = Rv1625c (Mycobacterium tuberculosis, UniProt P9WQ35); experiment: cAMP production in cya- E. coli expressing Rv1625c; format: cell-based; conditions: cya- E. coli with Rv1625c expression plasmid, 18 hours
Sequence of Rv1625c (P9WQ35 whole entry, looked up): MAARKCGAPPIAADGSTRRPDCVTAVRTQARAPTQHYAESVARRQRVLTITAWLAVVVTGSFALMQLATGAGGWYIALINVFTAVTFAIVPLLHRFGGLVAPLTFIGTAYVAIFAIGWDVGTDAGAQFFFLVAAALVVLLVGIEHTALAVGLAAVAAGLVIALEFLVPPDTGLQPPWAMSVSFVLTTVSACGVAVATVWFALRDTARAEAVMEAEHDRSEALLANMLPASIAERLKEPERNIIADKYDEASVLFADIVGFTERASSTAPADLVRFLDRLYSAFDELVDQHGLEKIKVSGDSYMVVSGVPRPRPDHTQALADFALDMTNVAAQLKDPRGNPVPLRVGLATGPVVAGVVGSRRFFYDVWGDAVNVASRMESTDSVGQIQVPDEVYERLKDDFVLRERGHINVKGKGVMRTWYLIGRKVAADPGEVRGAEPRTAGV

Row | Compound | susceptibility of 2xrv1625c (rv1625c overexpression) strain relative to WT (Mtb; 7H12+cholesterol media) | inhibition of ΔRv1625c mutant (Mtb) | cAMP levels (Rv1625c)
1 | Cc1nonc1CC(=O)N1CCC(n2nnc(-c3ccc(F)cc3)n2)CC1 [V-59, 1-(4-(5-(4-fluorophenyl)-2H-tetrazol-2-yl)piperidin-1-yl)-2-(4-methyl-1,2,5-oxadiazol-3-yl)ethan-1-one] | ~ 15 fold | refractory | increased cAMP levels
2 | Cn1ncnc1CC(=O)N1CCC(c2nc(-c3ccc(Cl)c(Cl)c3)no2)CC1 [mCLB073, 1-(4-(3-(3,4-dichlorophenyl)-1,2,4-oxadiazol-5-yl)-1-piperidinyl)-2-(2-methyl-2H-1,2,4-triazol-3-yl)-1-ethanone] | – | refractory | –
